Assay results taken from ChEMBL document CHEMBL1201861, “Genomics of Drug Sensitity in Cancer screening data, Wellcome Trust Sanger Institute”.

Tests used:
Test in all cases: cells
PA-1 = type: functional, cell-based, Homo sapiens; conditions: Homo sapiens, PA-1;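 note: IC50 for suppression of PA-1 cell proliferation, determined with a cell viability read-out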
Description: SANGER: Inhibition of human PA-1 cell growth in a cell viability assay.

LU-139 = type: functional, cell-based; conditions: Homo sapiens
Description: SANGER: Inhibition of human LU-139 cell growth in a cell viability assay.

NCI-H747 = type: functional, cell-based; conditions: Homo sapiens;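 note: growth inhibition of human NCI-H747 cells, read out by a cell viability assay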
Description: SANGER: Inhibition of human NCI-H747 cell growth in a cell viability assay.

LS-513 = type: functional, cell-based, Homo sapiens; conditions: Homo sapiens, LS-513
Description: SANGER: Inhibition of human LS-513 cell growth in a cell viability assay.

HT-3 = type: functional, cell-based, Homo sapiens; conditions: Homo sapiens, HT-3;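 note: growth inhibition measured with a cell viability readout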
Description: SANGER: Inhibition of human HT-3 cell growth in a cell viability assay.

A-375 = type: functional, cell-based, Homo sapiens; conditions: Homo sapiens, A-375;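 note: growth inhibition of A375 cells, read out with a cell viability assay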
Description: SANGER: Inhibition of human A375 cell growth in a cell viability assay.

KYSE-520 cell line = type: functional, cell-based, Homo sapiens; conditions: Homo sapiens, KYSE-520;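 note: growth inhibition of human KYSE-520 cells, read out with a viability assay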
Description: SANGER: Inhibition of human KYSE-520 cell growth in a cell viability assay.

TE-12 = type: functional, cell-based; conditions: Homo sapiens;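 note: growth inhibition of TE-12 cells, read out by a cell viability assay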
Description: SANGER: Inhibition of human TE-12 cell growth in a cell viability assay.

HH = type: functional, cell-based; conditions: Homo sapiens
Description: SANGER: Inhibition of human HH cell growth in a cell viability assay.

MPP-89 = type: functional, cell-based, Homo sapiens; conditions: Homo sapiens, MPP-89;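 note: growth inhibition of human MPP-89 cells, read out with a cell viability assay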
Description: SANGER: Inhibition of human MPP-89 cell growth in a cell viability assay.

P12-Ichikawa = type: functional, cell-based; conditions: Homo sapiens
SF-295 = type: functional, cell-based, Homo sapiens; conditions: Homo sapiens, SF-295; read-out: IC50;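 note: growth inhibition of SF-295 cells, read out with a cell viability assay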
Description: SANGER: Inhibition of human SF295 cell growth in a cell viability assay.

NCI-H2126 = type: functional, cell-based, Homo sapiens; conditions: Homo sapiens, NCI-H2126;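 note: growth inhibition of the cancer cell line, determined with a cell viability readout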
Description: SANGER: Inhibition of human NCI-H2126 cell growth in a cell viability assay.

A-431 = type: functional, cell-based, Homo sapiens; conditions: Homo sapiens, A-431;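 note: growth inhibition of A-431 cells, determined with a cell viability read-out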
Description: SANGER: Inhibition of human A431 cell growth in a cell viability assay.

Detroit 562 = type: functional, cell-based, Homo sapiens; conditions: Homo sapiens, Detroit 562;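 note: growth inhibition of human Detroit 562 cells, read out by a cell viability assay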
Description: SANGER: Inhibition of human Detroit562 cell growth in a cell viability assay.

SW837 = type: functional, cell-based, Homo sapiens; conditions: Homo sapiens, SW837;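 note: growth inhibition of SW837 cells, determined with a cell viability assay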
Description: SANGER: Inhibition of human SW837 cell growth in a cell viability assay.

Ca9-22 = type: functional, cell-based, Homo sapiens; conditions: Homo sapiens, Ca9-22;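 note: growth inhibition of Ca9-22 cells, read out with a cell viability assay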
Description: SANGER: Inhibition of human Ca9-22 cell growth in a cell viability assay.

RERF-LC-MS = type: functional, cell-based, Homo sapiens; conditions: Homo sapiens, RERF-LC-MS;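 note: growth inhibition of human RERF-LC-MS cells, read out by a cell viability assay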
Description: SANGER: Inhibition of human RERF-LC-MS cell growth in a cell viability assay.

GT3TKB = type: functional, cell-based, Homo sapiens; conditions: Homo sapiens, GT3TKB;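 note: growth inhibition of the cell line, read out with a cell viability assay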
Description: SANGER: Inhibition of human GT3TKB cell growth in a cell viability assay.

NCI-H2087 = type: functional, cell-based, Homo sapiens; conditions: Homo sapiens, NCI-H2087;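 note: growth inhibition determined with a cell viability readout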
Description: SANGER: Inhibition of human NCI-H2087 cell growth in a cell viability assay.

AGS = type: functional, cell-based, Homo sapiens; conditions: Homo sapiens, AGS;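 note: growth inhibition of AGS cells, determined with a cell viability assay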
Description: SANGER: Inhibition of human AGS cell growth in a cell viability assay.

NCI-H720 = type: functional, cell-based; conditions: Homo sapiens;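 note: growth inhibition of human NCI-H720 cells determined by a cell viability assay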
Description: SANGER: Inhibition of human NCI-H720 cell growth in a cell viability assay.

CW-2 = type: functional, cell-based, Homo sapiens; conditions: Homo sapiens, CW-2;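 note: growth inhibition of CW-2 cells, read out by a cell viability assay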
Description: SANGER: Inhibition of human CW-2 cell growth in a cell viability assay.

FaDu = type: functional, cell-based, Homo sapiens; conditions: Homo sapiens, FaDu;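 note: cell viability readout of growth inhibition in FaDu cells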
Description: SANGER: Inhibition of human FADU cell growth in a cell viability assay.

NCI-H650 = type: functional, cell-based, Homo sapiens; conditions: Homo sapiens, NCI-H650;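 note: growth inhibition of NCI-H650 cells, read out by a viability assay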
Description: SANGER: Inhibition of human NCI-H650 cell growth in a cell viability assay.

PC-3 = type: functional, cell-based, Homo sapiens; conditions: Homo sapiens, PC-3;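 note: cell viability assay measuring growth inhibition of PC-3 cells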
Description: SANGER: Inhibition of human PC-3 cell growth in a cell viability assay.

ONS-76 = type: functional, cell-based, Homo sapiens; conditions: Homo sapiens, ONS-76;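 note: growth inhibition of human ONS-76 cells, read out with a cell viability assay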
Description: SANGER: Inhibition of human ONS-76 cell growth in a cell viability assay.

MDA-MB-415 = type: functional, cell-based; conditions: Homo sapiens
NEC8 = type: functional, cell-based, Homo sapiens; conditions: Homo sapiens, NEC8;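 note: growth inhibition of human NEC8 cells, read out by a cell viability assay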
Description: SANGER: Inhibition of human NEC8 cell growth in a cell viability assay.

EM-2 = type: functional, cell-based; conditions: Homo sapiens;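 note: growth inhibition of EM-2 cells, read out with a cell viability assay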
Description: SANGER: Inhibition of human EM-2 cell growth in a cell viability assay.

SK-HEP1 = type: functional, cell-based, Homo sapiens, SK-HEP-1; conditions: Homo sapiens, SK-HEP1;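 note: cell viability readout used to quantify reduction in proliferation of human SK-HEP-1 cells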
Description: SANGER: Inhibition of human SK-HEP-1 cell growth in a cell viability assay.

NOS-1 = type: functional, cell-based, Homo sapiens; conditions: Homo sapiens, NOS-1;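 note: growth inhibition of the human NOS-1 cell line, read out with a cell viability assay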
Description: SANGER: Inhibition of human NOS-1 cell growth in a cell viability assay.

HEC-1 = type: functional, cell-based, Homo sapiens; conditions: Homo sapiens, HEC-1;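 note: growth inhibition of the cell line, read out with a cell viability assay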
Description: SANGER: Inhibition of human HEC-1 cell growth in a cell viability assay.

LCLC-97TM1 = type: functional, cell-based, Homo sapiens; conditions: Homo sapiens, LCLC-97TM1;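 note: cell viability assay measuring growth inhibition of human LCLC-97TM1 cells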
Description: SANGER: Inhibition of human LCLC-97TM1 cell growth in a cell viability assay.

HEL = type: functional, cell-based, Homo sapiens; conditions: Homo sapiens, HEL;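 note: growth inhibition of HEL cells, read out with a cell viability assay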
Description: SANGER: Inhibition of human HEL cell growth in a cell viability assay.

J82 = type: functional, cell-based; conditions: Homo sapiens;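 note: growth inhibition of J82 cells, read out with a cell viability assay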
Description: SANGER: Inhibition of human J82 cell growth in a cell viability assay.

KU-19-19 = type: functional, cell-based, Homo sapiens; conditions: Homo sapiens, KU-19-19
Description: SANGER: Inhibition of human KU-19-19 cell growth in a cell viability assay.

HT = type: functional, cell-based; conditions: Homo sapiens
Description: SANGER: Inhibition of human HT cell growth in a cell viability assay.

EW-13 = type: functional, cell-based; conditions: Homo sapiens;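 note: growth inhibition of EW-13 cells, read out with a cell viability assay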
Description: SANGER: Inhibition of human EW-13 cell growth in a cell viability assay.

LAMA-84 = type: functional, cell-based; conditions: Homo sapiens;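 note: growth inhibition of LAMA-84 cells, read out with a cell viability assay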
Description: SANGER: Inhibition of human LAMA-84 cell growth in a cell viability assay.

NCI-H2228 = type: functional, cell-based, Homo sapiens; conditions: Homo sapiens, NCI-H2228;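 note: growth inhibition of human NCI-H2228 cells, read out by a cell viability assay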
Description: SANGER: Inhibition of human NCI-H2228 cell growth in a cell viability assay.

LB2518-MEL = type: functional, cell-based, Homo sapiens; conditions: Homo sapiens, LB2518-MEL;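 note: growth inhibition of human LB2518-MEL cells, measured with a cell viability assay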
Description: SANGER: Inhibition of human LB2518-MEL cell growth in a cell viability assay.

TE-9 = type: functional, cell-based, Homo sapiens; conditions: Homo sapiens, TE-9;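 note: cell growth inhibition, measured with a cell viability readout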
Description: SANGER: Inhibition of human TE-9 cell growth in a cell viability assay.

A3-KAW = type: functional, cell-based; conditions: Homo sapiens;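 note: growth inhibition of human A3-KAW cells, read out with a cell viability assay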
Description: SANGER: Inhibition of human A3-KAW cell growth in a cell viability assay.

CAL-85-1 = type: functional, cell-based; conditions: Homo sapiens;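 note: growth inhibition of human CAL-85-1 cells, read out with a cell viability assay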
Description: SANGER: Inhibition of human CAL-85-1 cell growth in a cell viability assay.

HPAF-II = type: functional, cell-based, Homo sapiens; conditions: Homo sapiens, HPAF-II;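 note: growth inhibition of HPAF-II cells, read out with a cell viability assay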
Description: SANGER: Inhibition of human HPAF-II cell growth in a cell viability assay.

AM-38 = type: functional, cell-based, Homo sapiens; conditions: Homo sapiens, AM-38;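 note: growth inhibition of AM-38 cells of human origin, read out by a cell viability assay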
Description: SANGER: Inhibition of human AM-38 cell growth in a cell viability assay.

COLO-824 = type: functional, cell-based, Homo sapiens; conditions: Homo sapiens, COLO-824
Description: SANGER: Inhibition of human COLO-824 cell growth in a cell viability assay.

LS-411N = type: functional, cell-based, Homo sapiens; conditions: Homo sapiens, LS-411N
PSN1 = type: functional, cell-based, Homo sapiens; conditions: Homo sapiens, PSN1;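 note: suppression of growth of human PSN1 cells, read out by a cell viability assay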
Description: SANGER: Inhibition of human PSN1 cell growth in a cell viability assay.

Ca-Ski = type: functional, cell-based; conditions: Homo sapiens;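 note: cell viability assay measuring inhibition of Ca-Ski cell growth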
Description: SANGER: Inhibition of human Ca-Ski cell growth in a cell viability assay.

COLO-678 = type: functional, cell-based, Homo sapiens; conditions: Homo sapiens, COLO-678
Description: SANGER: Inhibition of human COLO-678 cell growth in a cell viability assay.

Capan-2 = type: functional, cell-based, Homo sapiens; conditions: Homo sapiens, Capan-2;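 note: Capan-2 cell growth inhibition, read out with a viability assay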
Description: SANGER: Inhibition of human Capan-2 cell growth in a cell viability assay.

With O=C(NOCC1CC1)c1ccc(F)c(F)c1Nc1ccc(I)cc1Cl [CI-1040] the IC50 (PA-1) was 5.64 µM, the IC50 (LU-139) was greater than 10 µM and the IC50 (NCI-H747) was 4.69 µM. For the same compound, the IC50 (LS-513) was 1.45 µM, the IC50 (HT-3) was greater than 10 µM and the IC50 (A-375) was 1.9 µM. It also gave an IC50 (KYSE-520 cell line) greater than 10 µM, an IC50 (TE-12) of 9.03 µM and an IC50 (HH) of 4.42 µM. The IC50 (MPP-89) was greater than 10 µM, the IC50 (P12-Ichikawa) was 0.612 µM and the IC50 (SF-295) was greater than 10 µM. For the same compound, the IC50 (NCI-H2126) was 9.01 µM, the IC50 (A-431) was 6.24 µM and the IC50 (Detroit 562) was greater than 10 µM. For the same compound, the IC50 (SW837) was greater than 10 µM, the IC50 (Ca9-22) was 2.97 µM and the IC50 (RERF-LC-MS) was 5.69 µM. For the same compound, the IC50 (GT3TKB) was 5.47 µM, the IC50 (NCI-H2087) was 3.85 µM and the IC50 (AGS) was 0.117 µM. The IC50 (NCI-H720) was greater than 10 µM, the IC50 (CW-2) was greater than 10 µM and the IC50 (FaDu) was 5.56 µM. The IC50 (NCI-H650) was greater than 10 µM, the IC50 (PC-3) was greater than 10 µM and the IC50 (ONS-76) was 1.22 µM. For the same compound, the IC50 (MDA-MB-415) was greater than 10 µM, the IC50 (NEC8) was greater than 10 µM and the IC50 (EM-2) was 2.07 µM. It also gave an IC50 (SK-HEP1) of 5.93 µM, an IC50 (NOS-1) greater than 10 µM and an IC50 (HEC-1) greater than 10 µM. For the same compound, the IC50 (LCLC-97TM1) was 1.92 µM, the IC50 (HEL) was greater than 10 µM and the IC50 (J82) was greater than 10 µM. The IC50 (KU-19-19) was 3.17 µM, the IC50 (HT) was greater than 10 µM and the IC50 (EW-13) was 2.56 µM. It also gave an IC50 (LAMA-84) of 3.14 µM, an IC50 (NCI-H2228) greater than 10 µM and an IC50 (LB2518-MEL) of 0.716 µM. For the same compound, the IC50 (TE-9) was greater than 10 µM, the IC50 (A3-KAW) was greater than 10 µM and the IC50 (CAL-85-1) was greater than 10 µM. For the same compound, the IC50 (HPAF-II) was 3.75 µM, the IC50 (AM-38) was greater than 10 µM and the IC50 (COLO-824) was greater than 10 µM. The IC50 (LS-411N) was 1.41 µM, the IC50 (PSN1) was 0.962 µM and the IC50 (Ca-Ski) was greater than 10 µM. For the same compound, the IC50 (COLO-678) was 7.71 µM and the IC50 (Capan-2) was greater than 10 µM.

Compound Nc1ccn([C@@H]2O[C@H](CO)[C@@H](O)[C@@H]2O)c(=O)n1 [CYTARABINE] has an IC50 (PA-1) of 0.187 µM, an IC50 (LU-139) greater than 2 µM and an IC50 (NCI-H747) greater than 2 µM. The IC50 (LS-513) was 0.38 µM, the IC50 (HT-3) was 1.38 µM and the IC50 (A-375) was 0.396 µM. The IC50 (KYSE-520 cell line) was greater than 2 µM, the IC50 (TE-12) was greater than 2 µM and the IC50 (HH) was greater than 2 µM. The IC50 (MPP-89) was 1.31 µM, the IC50 (P12-Ichikawa) was 0.00554 µM and the IC50 (SF-295) was greater than 2 µM. The IC50 (NCI-H2126) was greater than 2 µM, the IC50 (A-431) was greater than 2 µM and the IC50 (Detroit 562) was greater than 2 µM. It also gave an IC50 (SW837) greater than 2 µM, an IC50 (Ca9-22) of 0.321 µM and an IC50 (RERF-LC-MS) of 1.76 µM. For the same compound, the IC50 (GT3TKB) was 0.341 µM, the IC50 (NCI-H2087) was greater than 2 µM and the IC50 (AGS) was 0.918 µM. It also gave an IC50 (NCI-H720) greater than 2 µM, an IC50 (CW-2) of 0.613 µM and an IC50 (FaDu) greater than 2 µM. The IC50 (NCI-H650) was greater than 2 µM, the IC50 (PC-3) was 1.28 µM and the IC50 (ONS-76) was 0.39 µM. It also gave an IC50 (MDA-MB-415) greater than 2 µM, an IC50 (NEC8) of 0.134 µM and an IC50 (EM-2) of 0.211 µM. The IC50 (SK-HEP1) was 0.556 µM, the IC50 (NOS-1) was 1.91 µM and the IC50 (HEC-1) was 1.79 µM. It also gave an IC50 (LCLC-97TM1) of 0.477 µM, an IC50 (HEL) of 0.0205 µM and an IC50 (J82) of 1.62 µM. It also gave an IC50 (KU-19-19) greater than 2 µM, an IC50 (HT) greater than 2 µM and an IC50 (EW-13) of 1.98 µM. The IC50 (LAMA-84) was 0.335 µM, the IC50 (NCI-H2228) was 0.597 µM and the IC50 (LB2518-MEL) was greater than 2 µM. The IC50 (TE-9) was 1.79 µM, the IC50 (A3-KAW) was 0.844 µM and the IC50 (CAL-85-1) was greater than 2 µM. It also gave an IC50 (HPAF-II) greater than 2 µM, an IC50 (AM-38) of 1.47 µM and an IC50 (COLO-824) greater than 2 µM. It also gave an IC50 (LS-411N) of 0.695 µM, an IC50 (PSN1) of 0.193 µM and an IC50 (Ca-Ski) greater than 2 µM. It also gave an IC50 (COLO-678) greater than 2 µM and an IC50 (Capan-2) greater than 2 µM.
